Legend:
[1] = system: 12 bacteria (four Gram-positive and eight Gram-negative strains); conditions: colony counting, 10-100 µg/mL in PBS, 3 h preincubation then 12-18 h; % of CFU of unexposed bacteria; mean of three independent experiments, three replicates each; Fig. 3
Method: The antimicrobial activities of both rAvBD and sAvBD were determined by colony counting assay. Briefly, a 10 µL of diluted bacterial culture (diluted 1000-fold in the appropriate medium) was treated with 250 µL of rAvBD or sAvBD (0 to 100 µg/mL in PBS) in polypropylene microtiter plates and preincubated for 3 h at conditions suited to the investigated strain; 100 µL of minimal medium was added after 3 h and the plates were incubated for 12–18 h further. Then, the sample was rediluted 100-to-10^6-fold in minimal medium, transferred to TSA plates and colonies were counted after 24 h of incubation. Bactericidal activity was calculated as a percentage of CFU of bacteria not exposed to antimicrobial peptides but subjected to the same experimental conditions. Results from the antimicrobial assay represent the mean of the three independent experiments, with three replicates per experiment.

[2] = system: DHV-1 strain Du/CH/LBJ/090809; conditions: DHV-1 serially diluted, treated with equal volume of 300 µg/mL protein in PBS, 37°C 60 min; 11-day-old SPF duck embryos, observed 7 days; three independent experiments, five replicates
Method: Briefly, the DHV-1 (10^8 median embryo infectious doses, EID50) was serially diluted 10-fold and treated with equal volumes of GST or rAvBDs (300 µg/mL in PBS) at 37°C for 60 min. The mixture was inoculated into 11-day-old specific pathogen free (SPF) duck embryos, with 200 µL administered per duck. The inoculated duck embryos were incubated at 37°C and observed for 7 days. Mortality was recorded every 8 h. […] All antiviral activity assays were performed in three independent experiments, with five replicates per experiment.

## glutathione-S-transferase [GST]
[1]
  bactericidal activity against all of the bacterial strains investigated: no bactericidal activity
[2]
  survival time of duck embryos inoculated with treated DHV: little effect

— PMC3480435, “Identification, Expression and Activity Analyses of Five Novel Duck Beta-Defensins” (PLoS ONE, 2012)
